Each compound was assayed on A549-NF-κB-SEAP reporter cells (assay: Inhibition of NF-κB-induced inflammation: […] NINA Instant Assay, TNF-α stimulated SEAP reporter). Details: % inhibition classes.
Assay type: cell-based
Excerpt: For the determination of anti-inflammatory activity of the compounds the […]® NINA Instant Assay from Cell Culture Service GmBH was used. This assay is based on […] recombinant A549-NF-κB-SEAP reporter cells preceded in 96-well flat bottom plates. As the transfected reportergen for SEAP (secreted embryonic alkaline phosphatase) is under transcriptional control of a NF-κB-responsive element, the expression of this reporter is activated upon stimulation with TNF-α. SEAP secretion into the culture supernatant can be detected by the chemiluminescent substrate CSPD®. Test compounds that inhibit the NF-κB activation show reduced SEAP activity and reduced luminescent readout.
Following 18 h of reactivation at 37° C., 5% CO2 and 90% relative humidity, the cells were incubated with 0.01 up to 100 μM of test compound for 4.5 h before stimulation with 2 ng/ml TNF-α. After stimulation with TNF-α for 22 h endogenous phosphatases were inactivated and CSPD® substrate was supplied for 40 min. SEAP activity then was quantified by measuring luminescence as relative light units (RLU) using a Tecan Ultra reader. Each data point was recorded in quadruplicates and EC50 values were calculated via fitting function and the Microsoft Excel Solver.

Structure (SMILES)	Biological activity (inhibition in the NF-κB inflammation assay)
O=C(c1csc(C2CCN(c3ccccc3)CC2)n1)N1CCN(c2cccc(C(F)(F)F)c2)CC1 [compound 119]	+ (“+” stands for 50-80% inhibition)
O=C(c1csc(C2CCN(S(=O)(=O)c3ccc(Br)s3)CC2)n1)N1CCN(c2cccc(C(F)(F)F)c2)CC1 [compound 203]	+ (“+” stands for 50-80% inhibition)
O=C(c1csc(N2CCN(Cc3ccccc3)CC2)n1)N1CCN(C(c2ccccc2)c2ccccc2)CC1 [compound 71]	+++ (“+++” stands for 90-100% inhibition)
O=C(c1csc(N2CCN(c3ccc(F)cc3)CC2)n1)N1CCN(c2cccc(C(F)(F)F)c2)CC1 [compound 69]	++ (“++” means 80-90%)
CC(=O)Nc1ccc(S(=O)(=O)N2CCC(c3nc(C(=O)N4CCN(c5cccc(C(F)(F)F)c5)CC4)cs3)CC2)cc1 [compound 207]	+ (“+” stands for 50-80% inhibition)
O=C(c1csc(C2CCN(S(=O)(=O)c3ccccc3)CC2)n1)N1CCN(c2cccc(C(F)(F)F)c2)CC1 [compound 208]	+ (“+” stands for 50-80% inhibition)
O=C(c1csc(C2CCN(C(=O)c3cccs3)CC2)n1)N1CCN(c2cccc(C(F)(F)F)c2)CC1 [compound 212]	+ (“+” stands for 50-80% inhibition)
CC(C)(C)OC(=O)N1CCC(c2nc(C(=O)NC(=N)Nc3nc4ccccc4[nH]3)cs2)CC1 [compound 95]	+++ (“+++” stands for 90-100% inhibition)
O=C(c1csc(C2CCN(S(=O)(=O)c3ccc(Cl)cc3)CC2)n1)N1CCN(c2cccc(C(F)(F)F)c2)CC1 [compound 206]	+ (“+” stands for 50-80% inhibition)
O=C(c1csc(C2CCN(c3ccc4c(c3)OCO4)CC2)n1)N1CCN(c2cccc(C(F)(F)F)c2)CC1 [compound 156]	+ (“+” stands for 50-80% inhibition)
O=C(O)c1cccnc1C(=O)N1CCC(c2nc(C(=O)N3CCN(c4cccc(C(F)(F)F)c4)CC3)cs2)CC1 [compound 183]	+ (“+” stands for 50-80% inhibition)
N#Cc1ccc(C(=O)NCC2CCN(c3nc(C(=O)N4CCN(c5cccc(C(F)(F)F)c5)CC4)cs3)CC2)cc1 [compound 102]	+ (“+” stands for 50-80% inhibition)
CC1c2cc(O)c(O)cc2CCN1C(=O)c1csc(C2CCN(C(=O)Cc3ccc(F)cc3)CC2)n1 (stereo not shown) [compound 233]	+ (“+” stands for 50-80% inhibition)
Cc1cc2nc(NC(=O)c3csc(C4CCN(C(=O)c5ccccc5OC(F)(F)F)CC4)n3)[nH]c2cc1C [compound 133]	+++ (“+++” stands for 90-100% inhibition)
O=C(Nc1ccccc1OC(F)(F)F)N1CCC(c2nc(C(=O)N3CCN(c4cccc(C(F)(F)F)c4)CC3)cs2)CC1 [compound 79]	+++ (“+++” stands for 90-100% inhibition)
CC(C)(C)OC(=O)N1CCN(c2nc(C(=O)N3CCN(c4cccc(C(F)(F)F)c4)CC3)cs2)CC1 [compound 63]	++ (“++” means 80-90%)
COc1ccc(Cl)cc1S(=O)(=O)N1CCC(c2nc(C(=O)N3CCN(c4cccc(C(F)(F)F)c4)CC3)cs2)CC1 [compound 202]	++ (“++” means 80-90%)
COC(=O)C1Cc2ccc(O)cc2CN1C(=O)c1csc(C2CCN(C(=O)Cc3ccc(F)cc3)CC2)n1 (stereo not shown) [compound 179]	+ (“+” stands for 50-80% inhibition)
O=C(c1csc(C2CCN(S(=O)(=O)c3ccc(OC(F)(F)F)cc3)CC2)n1)N1CCN(c2cccc(C(F)(F)F)c2)CC1 [compound 205]	+ (“+” stands for 50-80% inhibition)
O=C(c1csc(C2CCN(C(=O)C3COc4ccccc4O3)CC2)n1)N1CCN(c2cccc(C(F)(F)F)c2)CC1 (stereo not shown) [compound 217]	+++ (“+++” stands for 90-100% inhibition)
CS(=O)(=O)c1ccc(N2CCC(c3nc(C(=O)N4CCN(c5cccc(C(F)(F)F)c5)CC4)cs3)CC2)cc1 [compound 117]	+ (“+” stands for 50-80% inhibition)
COc1ccc(OC)c(N2CCC(c3nc(C(=O)N4CCN(c5cccc(C(F)(F)F)c5)CC4)cs3)CC2)c1 [compound 116]	+ (“+” stands for 50-80% inhibition)

Structure (SMILES)	Biological activity (inhibition in the NF-κB inflammation assay)
O=C(c1csc(C2CCN(Cc3ccc(-c4ccccc4)cc3)CC2)n1)N1CCN(c2cccc(C(F)(F)F)c2)CC1 [compound 167]	+ (“+” stands for 50-80% inhibition)
O=C(Nc1ccccc1)N1CCC(c2nc(C(=O)N3CCN(c4cccc(C(F)(F)F)c4)CC3)cs2)CC1 [compound 134]	+ (“+” stands for 50-80% inhibition)
N#CC1(c2ccccc2)CCN(C(=O)c2csc(C3CCN(C(=O)Cc4ccc(F)cc4)CC3)n2)CC1 [compound 228]	+ (“+” stands for 50-80% inhibition)
COc1nc(OC)nc(N2CCN(C(=O)c3csc(C4CCN(Cc5ccc(Br)cc5)CC4)n3)CC2)n1 [compound 121]	+ (“+” stands for 50-80% inhibition)
Cn1nc(C(C)(C)C)cc1C(=O)N1CCC(c2nc(C(=O)N3CCN(c4cccc(C(F)(F)F)c4)CC3)cs2)CC1 [compound 216]	++ (“++” means 80-90%)
O=C(Cc1ccc(F)cc1)N1CCC(c2nc(C(=O)N3CCC(n4nnc5ccccc54)CC3)cs2)CC1 [compound 182]	+ (“+” stands for 50-80% inhibition)
COc1ccccc1C(=O)N1CCN(c2nc(C(=O)N3CCN(c4cccc(C(F)(F)F)c4)CC3)cs2)CC1 [compound 38]	+++ (“+++” stands for 90-100% inhibition)
O=C(c1csc(C2CCN(C(=O)c3ccccc3OC(F)(F)F)CC2)n1)N1CCN(c2cccc(C(F)(F)F)c2)CC1 [compound 223]	+++ (“+++” stands for 90-100% inhibition)
O=C(Nc1ccc2c(c1)OCCO2)N1CCC(c2nc(C(=O)N3CCN(c4cccc(C(F)(F)F)c4)CC3)cs2)CC1 [compound 75]	++ (“++” means 80-90%)
Cc1noc(C)c1S(=O)(=O)N1CCC(c2nc(C(=O)N3CCN(c4cccc(C(F)(F)F)c4)CC3)cs2)CC1 [compound 192]	+ (“+” stands for 50-80% inhibition)
O=C(c1csc(C2CCN(c3ccccn3)CC2)n1)N1CCN(c2cccc(C(F)(F)F)c2)CC1 [compound 123]	++ (“++” means 80-90%)
CN(C)c1nc(NC(=O)c2csc(C3CCN(C(=O)c4ccccc4OC(F)(F)F)CC3)n2)cc(=O)[nH]1 [compound 85]	+ (“+” stands for 50-80% inhibition)
O=C(c1csc(C2CCN(C(=O)c3ccccc3OC(F)(F)F)CC2)n1)N(CCO)Cc1ccccc1 [compound 148]	++ (“++” means 80-90%)
O=C(c1csc(N2CCN(c3cccc(C(F)(F)F)c3)CC2)n1)N1CCN(c2cccc(C(F)(F)F)c2)CC1 [compound 67]	+ (“+” stands for 50-80% inhibition)
O=C(c1ccc(C(F)(F)F)c(F)c1)N1CCC(c2nc(C(=O)N3CCN(c4cccc(C(F)(F)F)c4)CC3)cs2)CC1 [compound 215]	+++ (“+++” stands for 90-100% inhibition)
O=C(c1csc(C2CCN(Cc3ccc(F)cc3)CC2)n1)N1CCN(c2cccc(C(F)(F)F)c2)CC1 [compound 170]	+ (“+” stands for 50-80% inhibition)
O=C(c1csc(C2CCN(S(=O)(=O)Cc3ccccc3)CC2)n1)N1CCN(c2cccc(C(F)(F)F)c2)CC1 [compound 198]	+ (“+” stands for 50-80% inhibition)
CNc1ccc(Cl)cc1C1c2ccccc2CCN1C(=O)c1csc(C2CCN(C(=O)c3ccccc3OC(F)(F)F)CC2)n1 (stereo not shown) [compound 150]	++ (“++” means 80-90%)
COc1nc(OC)nc(N2CCN(C(=O)c3csc(C4CCN(C(=O)c5ccccc5OC(F)(F)F)CC4)n3)CC2)n1 [compound 127]	+ (“+” stands for 50-80% inhibition)
O=C(Nc1nc(C(=O)N2CCN(c3ccc(Cl)c(Cl)c3)CC2)cs1)c1ccccc1OC(F)(F)F [compound 41]	+++ (“+++” stands for 90-100% inhibition)
O=C(c1csc(C2CCN(S(=O)(=O)c3cc(C(F)(F)F)cc(C(F)(F)F)c3)CC2)n1)N1CCN(c2cccc(C(F)(F)F)c2)CC1 [compound 201]	++ (“++” means 80-90%)
COc1cccc(NC(=O)N2CCC(c3nc(C(=O)N4CCN(c5cccc(C(F)(F)F)c5)CC4)cs3)CC2)c1 [compound 80]	+ (“+” stands for 50-80% inhibition)

Same assay, conditions: inhibition classes

Structure (SMILES)	Biological activity (inhibition in the NF-κB inflammation assay)
CNc1ccc(Cl)cc1C1c2ccccc2CCN1C(=O)c1csc(C2CCN(C(=O)Cc3ccc(F)cc3)CC2)n1 (stereo not shown) [compound 235]	+ (“+” stands for 50-80% inhibition)
COc1ccc(OC)c(N2CCC(c3nc(C(=O)N4CCN(c5cccc(C(F)(F)F)c5)CC4)cs3)CC2)c1 [compound 239]	+ (“+” stands for 50-80% inhibition)

Source: patent publication US8106048B2, “Heterocyclic NF-κB inhibitors” (4SC AG, priority 2004, dated 2012)
